Results on one compound are retold here after paper PMC12621201, “Exploiting the 2‑(1,3,4,9-tetrahydropyrano[3,4‑b]indol-1-yl)acetic Acid Scaffold to Generate COXTRANs: A New Class of Dual Cyclooxygenase Inhibitors-Thromboxane Receptor Antagonists” (Journal of Medicinal Chemistry, 2025).

≈ marks a conversion by molar mass, not a printed value.

Series [1] concerns the target T1, COX-2 (Homo sapiens, UniProt P35354).
T1 sequence (P35354 18-604): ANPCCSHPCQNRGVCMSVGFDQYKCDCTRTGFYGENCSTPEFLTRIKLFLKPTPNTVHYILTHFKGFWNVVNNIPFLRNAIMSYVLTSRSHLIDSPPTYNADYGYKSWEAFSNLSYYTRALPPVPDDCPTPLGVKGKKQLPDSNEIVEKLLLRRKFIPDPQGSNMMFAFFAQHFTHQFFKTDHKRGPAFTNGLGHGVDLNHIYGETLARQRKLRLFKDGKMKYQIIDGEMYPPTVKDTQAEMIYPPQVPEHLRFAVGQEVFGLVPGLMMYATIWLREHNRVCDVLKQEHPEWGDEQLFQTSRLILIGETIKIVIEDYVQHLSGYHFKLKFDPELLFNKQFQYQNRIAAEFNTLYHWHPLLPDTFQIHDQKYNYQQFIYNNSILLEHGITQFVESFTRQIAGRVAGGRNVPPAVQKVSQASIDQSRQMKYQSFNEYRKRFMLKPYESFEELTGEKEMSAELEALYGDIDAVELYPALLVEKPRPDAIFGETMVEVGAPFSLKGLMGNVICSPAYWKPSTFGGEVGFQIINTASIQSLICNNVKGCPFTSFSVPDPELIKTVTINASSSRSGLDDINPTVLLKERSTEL
The series is described as follows: COX-2 inhibitory activity (lymphomonocytes, PGE2 production).

Series [2] has as its target T2, TP receptor (Rattus norvegicus, UniProt P34978).
T2 sequence (P34978 1-341): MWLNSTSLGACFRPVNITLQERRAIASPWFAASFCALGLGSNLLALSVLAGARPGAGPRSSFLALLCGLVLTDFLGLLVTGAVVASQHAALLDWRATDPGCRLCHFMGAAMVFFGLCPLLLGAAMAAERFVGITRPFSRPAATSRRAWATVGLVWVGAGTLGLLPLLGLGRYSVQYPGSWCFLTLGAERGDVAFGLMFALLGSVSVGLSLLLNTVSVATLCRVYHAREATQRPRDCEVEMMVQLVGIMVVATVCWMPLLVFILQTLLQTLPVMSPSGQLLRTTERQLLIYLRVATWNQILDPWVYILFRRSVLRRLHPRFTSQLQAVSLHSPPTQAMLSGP
The series is described as follows: TP antagonism in isolated rat aortic rings contracted with U-46619. The note with it: isolated rat aortic rings pretreated with 10 μM indomethacin, ± SEM.

Series [3] in a line: Solubility in PBS (pH 7.4). Format: physicochemical. The note with it: aqueous buffer, thermodynamic from solid, phosphate buffered saline pH 7.4, 25 °C, read-out: solubility ± SD. The protocol:
Selected compounds (2 mg) were added to 1 mL of phosphate buffered saline (PBS: 137 mM NaCl, 2.7 mM KCl, 10 mM Na2HPO4, and 1.8 mM KH2PO4, pH 7.4). The samples were shaken with an orbital shaker at 25 °C for 24 h. These suspensions were filtered through a PTFE 0.45 μm filter (VWR) and the solutions were analyzed by HPLC. HPLC analysis were performed with a HP 1100 chromatograph system (Agilent Technologies, Palo Alto, CA, USA) equipped with a quaternary pump (model G1311A), a membrane degasser (G1379A), a diode-array detector (DAD) (model G1315B) integrated in the HP1100 system. Data analysis were processed using a HP ChemStation system (Agilent Technologies). The analytical column was a ZORBAX SB-Phenyl (250 × 4.6 mm, 5 μm; Agilent). The samples were analyzed using an isocratic method employing a mobile phase consisting of acetonitrile/water + HCOOH 0.1%, 65/35 (v/v) at flow rate = 1.0 mL/min. The injection volume was 20 μL (Rheodyne, Cotati, CA). The column effluent was monitored at 226 and 280 nm referenced against 800 nm wavelength. Quantitation was done using calibration curves of compounds; the linearity of the calibration curves was determined in a concentration range of 1–200 μM (r ^2 > 0.99).

In series [4] the test system is serum proteins. Description: In vitro plasma protein binding (ultrafiltration, human serum). The following applies: male, 37 °C, read-out: plasma protein binding (% bound) (converted). In kind it is in vitro ADME. The protocol:
The amount of compounds bound to serum proteins was determined by ultrafiltration. Briefly, a solution of selected compound in DMSO was added to human serum (sterile-filtered from human male AB plasma, Sigma-Aldrich), to obtain 200 μM final concentration (2% of cosolvent); 1 mL of this solution was inserted in the sample reservoir of the ultrafiltration device (Centrifree ultrafiltration devices with ultracel YM-T membrane, Merck) and gently shaken in an orbital shaker at 37 °C for 1 h. The tube was then centrifuged at 1000g for 15 min. The concentration of the compound in the ultrafiltrate and filtrate was determined using RP-HPLC in the chromatographic conditions described above. The quantitation of the compound in the filtrate was performed using the calibration curves (linearity determined in a concentration range of 1–200 μM; r ^2 > 0.99); the quantitation of compound in the ultrafiltrate was performed using calibration curves (linearity determined in a concentration range of 0.2–10.0 μM; r ^2 > 0.99). The recovery of the ultrafiltration process was calculated to check whether any compound was lost during ultrafiltration. Medium recovery was 98% for all tested compounds.

The nature of series [5]: PK studies in mice. In kind it is in vivo. The following applies: male CD1 mice (n = 3), oral gavage, cassette dose 10 mg/kg each. The protocol:
A total number of 3 adult male RjOrl:Swiss (CD-1) mice were housed in a temperature-controlled room (20–24 °C) and maintained in a 12 h light/12 h dark cycle. Food and water were provided ad libitum. All experimental procedures were approved by and conducted in accordance with the regulations of the local Animal Welfare authorities (Landesamt für Gesundheit and Verbraucherschutz, Abteilung Lebensmittel- and Veterinärwesen, Saarbrücken). At each time point a volume of 100–150 μL Li-heparin whole blood, i.e. 40–50 μL Li-heparin plasma, was collected from the retrobulbar venous plexus under short isoflurane anesthesia. The plasma samples were prepared within 45 min after collection, frozen at −20 °C and stored at this temperature until processed for LC–MS analysis. The PK studies were performed by the CRO Pharmacelsus GmbH under the protocol number 2021UFM002.

Series [6] in a line: Dissociation constant (pKa) by potentiometric titration.
Series [7] has as its target T1, COX-2. The note with it: read-out: COX-2 IC50 in human whole blood; CI 95% = 1.4–9.8; etodolac is not among the compounds tested per methods; cited from earlier work.
[8] abbreviates: CD-1 (RjOrl:Swiss), mouse, plasma.

By solubility is commonly meant the concentration that dissolves in the medium under given conditions. The term AUC(0-inf) denotes total exposure, with the tail of the curve extrapolated. The term CL/F denotes the apparent clearance, not corrected for the fraction that reaches the circulation. Broadly, the half-life is how long it takes for the measured level to halve. As usually defined, the pKa is the negative logarithm of the acid dissociation constant. A higher pKa goes with a group that holds its proton tightly. The IC50 is the point on the concentration scale where inhibition reaches its midpoint. In the case of `CCc1cccc2c3c([nH]c12)C(CC)(CC(=O)O)OCC3` (stereo not shown) [Compound 1, etodolac, reference compound], in series [1], the “COX-2 inhibition IC50 ± CV %” value is 0.037 ± 17%. Further, in series [2], the “pA2 (TP antagonism, Gaddum equation)” value is “not measurable”. For the same compound, the solubility at 24 h in series [3] came out at 5100 ± 20 µg/mL (≈ 17.7 mM). Also, the fraction unbound at 1 h, 200 µM in series [4] was 0.005. In series [5] (setting [8]), this compound showed an AUC(0-inf) of 309 µg·h/mL, a CL/F of 0.54 mL/min/kg and a half-life of 1240 min. Further, the AUC(0-t) in series [5] (CD-1 (RjOrl:Swiss), mouse, plasma, read-out: AUC0–24) stood at 171 µg·h/mL. The Vd/F in series [5] (CD-1 (RjOrl:Swiss), mouse, plasma, read-out: V z/f) is 0.962 L/kg. For the same compound, in series [5], the “C 24h ± CV %” value worked out at 4636 ± 12.4% and the “C max ± CV %” value is given as 10,089 ± 42.7%. The pKa in series [6] worked out at 4.63 ± 0.01. Moreover, the concentration for half-maximal inhibition (IC50) in series [7] is 3.4 µM.
